Measured values as given in the NIST ThermoML archive (doi:10.1021/je501161t).
Numbers after ± are expanded uncertainties.

Test: mn = molality of the nth substance listed, in mol/kg
Conditions: 100 kPa, Liquid, Vibrating tube method

CCCCCCn1cc[n+](C)c1.[Br-] [3-hexyl-1-methyl-1H-imidazolium bromide] + O
mass density [kg/m3]
Conditions | m1 = 0.0314 | m1 = 0.0515 | m1 = 0.0703 | m1 = 0.0881 | m1 = 0.1098 | m1 = 0.131 | m1 = 0.1505 | m1 = 0.1711 | m1 = 0.1903
288.15 K | 1000.58 ± 2 | 1001.52 ± 2 | 1002.4 ± 2 | 1003.23 ± 2 | 1004.23 ± 2 | 1005.18 ± 2 | 1006.08 ± 2 | 1007 ± 2 | 1007.87 ± 2
298.15 K | 998.466 ± 2 | 999.368 ± 2 | 1000.21 ± 2 | 1001 ± 2 | 1001.96 ± 2 | 1002.88 ± 2 | 1003.74 ± 2 | 1004.64 ± 2 | 1005.47 ± 2
308.15 K | 995.404 ± 2 | 996.284 ± 2 | 997.097 ± 2 | 997.858 ± 2 | 998.787 ± 2 | 999.688 ± 2 | 1000.5 ± 2 | 1001.4 ± 2 | 1002.2 ± 2
318.15 K | 991.535 ± 2 | 992.389 ± 2 | 993.185 ± 2 | 993.932 ± 2 | 994.837 ± 2 | 995.704 ± 2 | 996.521 ± 2 | 997.358 ± 2 | 998.139 ± 2

CCOS(=O)(=O)[O-].CCn1cc[n+](C)c1 [1-ethyl-3-methylimidazolium ethyl sulfate] + O
mass density [kg/m3]
Conditions | m1 = 0.0313 | m1 = 0.0499 | m1 = 0.0682 | m1 = 0.0901 | m1 = 0.1095 | m1 = 0.1322
288.15 K | 1000.55 ± 2 | 1001.4 ± 2 | 1002.22 ± 2 | 1003.21 ± 2 | 1004.08 ± 2 | 1005.09 ± 2
298.15 K | 998.448 ± 2 | 999.27 ± 2 | 1000.07 ± 2 | 1001.04 ± 2 | 1001.87 ± 2 | 1002.86 ± 2
308.15 K | 995.398 ± 2 | 996.212 ± 2 | 996.995 ± 2 | 997.93 ± 2 | 998.762 ± 2 | 999.712 ± 2
318.15 K | 991.566 ± 2 | 992.377 ± 2 | 993.169 ± 2 | 994.105 ± 2 | 994.936 ± 2 | 995.897 ± 2

CCCCn1cc[n+](C)c1.[Cl-] [1-butyl-3-methylimidazolium chloride] + O
mass density [kg/m3]
Conditions | 288.15 K | 298.15 K | 308.15 K | 318.15 K
m1 = 0.0323 | 999.529 ± 2 | 997.423 ± 2 | 994.372 ± 2 | 990.507 ± 2
m1 = 0.0586 | 999.875 ± 2 | 997.736 ± 2 | 994.658 ± 2 | 990.768 ± 2
m1 = 0.0739 | 1000.08 ± 2 | 997.92 ± 2 | 994.834 ± 2 | 990.922 ± 2
m1 = 0.0899 | 1000.29 ± 2 | 998.113 ± 2 | 995.007 ± 2 | 991.091 ± 2
m1 = 0.1048 | 1000.49 ± 2 | 998.297 ± 2 | 995.182 ± 2 | 991.26 ± 2
m1 = 0.1254 | 1000.76 ± 2 | 998.55 ± 2 | 995.409 ± 2 | 991.473 ± 2
m1 = 0.1437 | 1001.01 ± 2 | 998.776 ± 2 | 995.622 ± 2 | 991.68 ± 2
m1 = 0.1687 | 1001.33 ± 2 | 999.091 ± 2 | 995.913 ± 2 | 991.942 ± 2
m1 = 0.1789 | 1001.47 ± 2 | 999.214 ± 2 | 996.039 ± 2 | 992.06 ± 2
m1 = 0.191 | 1001.63 ± 2 | 999.373 ± 2 | 996.185 ± 2 | 992.216 ± 2
m1 = 0.2204 | 1002.03 ± 2 | 999.752 ± 2 | 996.541 ± 2 | 992.538 ± 2

CCCCCCCCn1cc[n+](C)c1.[Br-] [1-methyl-3-octylimidazolium bromide] + O
mass density [kg/m3]
Conditions | m1 = 0.0323 | m1 = 0.0501 | m1 = 0.0722 | m1 = 0.0908 | m1 = 0.1112 | m1 = 0.1301 | m1 = 0.1485 | m1 = 0.1707 | m1 = 0.191
288.15 K | 1000.51 ± 2 | 1001.28 ± 2 | 1002.24 ± 2 | 1003.03 ± 2 | 1003.9 ± 2 | 1004.69 ± 2 | 1005.47 ± 2 | 1006.39 ± 2 | 1007.25 ± 2
298.15 K | 998.383 ± 2 | 999.121 ± 2 | 1000.02 ± 2 | 1000.77 ± 2 | 1001.6 ± 2 | 1002.36 ± 2 | 1003.08 ± 2 | 1003.99 ± 2 | 1004.77 ± 2
308.15 K | 995.284 ± 2 | 995.975 ± 2 | 996.827 ± 2 | 997.539 ± 2 | 998.314 ± 2 | 999.033 ± 2 | 999.725 ± 2 | 1000.54 ± 2 | 1001.3 ± 2
318.15 K | 991.366 ± 2 | 992.011 ± 2 | 992.796 ± 2 | 993.46 ± 2 | 994.171 ± 2 | 994.852 ± 2 | 995.483 ± 2 | 996.26 ± 2 | 996.981 ± 2

CCCCn1cc[n+](C)c1.[Br-] [1-butyl-3-methylimidazolium bromide] + O
mass density [kg/m3]
Conditions | m1 = 0.0317 | m1 = 0.0585 | m1 = 0.073 | m1 = 0.0916 | m1 = 0.114 | m1 = 0.1319 | m1 = 0.1508 | m1 = 0.1706 | m1 = 0.191
288.15 K | 1000.71 ± 2 | 1002.05 ± 2 | 1002.78 ± 2 | 1003.7 ± 2 | 1004.8 ± 2 | 1005.69 ± 2 | 1006.6 ± 2 | 1007.56 ± 2 | 1008.55 ± 2
298.15 K | 998.612 ± 2 | 999.924 ± 2 | 1000.63 ± 2 | 1001.53 ± 2 | 1002.61 ± 2 | 1003.47 ± 2 | 1004.36 ± 2 | 1005.3 ± 2 | 1006.26 ± 2
308.15 K | 995.556 ± 2 | 996.84 ± 2 | 997.535 ± 2 | 998.413 ± 2 | 999.47 ± 2 | 1000.32 ± 2 | 1001.19 ± 2 | 1002.12 ± 2 | 1003.07 ± 2
318.15 K | 991.699 ± 2 | 992.959 ± 2 | 993.641 ± 2 | 994.509 ± 2 | 995.544 ± 2 | 996.382 ± 2 | 997.243 ± 2 | 998.148 ± 2 | 999.08 ± 2

CCCCn1cc[n+](C)c1.F[B-](F)(F)F [1-butyl-3-methylimidazolium tetrafluoroborate] + O
mass density [kg/m3]
Conditions | m1 = 0.0311 | m1 = 0.0527 | m1 = 0.072 | m1 = 0.0904 | m1 = 0.1103 | m1 = 0.1326 | m1 = 0.1525 | m1 = 0.1788
288.15 K | 1000.38 ± 2 | 1001.26 ± 2 | 1002.03 ± 2 | 1002.76 ± 2 | 1003.54 ± 2 | 1004.4 ± 2 | 1005.17 ± 2 | 1006.16 ± 2
298.15 K | 998.274 ± 2 | 999.116 ± 2 | 999.86 ± 2 | 1000.56 ± 2 | 1001.31 ± 2 | 1002.13 ± 2 | 1002.86 ± 2 | 1003.82 ± 2
308.15 K | 995.194 ± 2 | 995.999 ± 2 | 996.713 ± 2 | 997.385 ± 2 | 998.11 ± 2 | 998.921 ± 2 | 999.635 ± 2 | 1000.58 ± 2
318.15 K | 991.332 ± 2 | 992.114 ± 2 | 992.809 ± 2 | 993.467 ± 2 | 994.171 ± 2 | 994.948 ± 2 | 995.643 ± 2 | 996.555 ± 2

COS(=O)(=O)[O-].Cn1cc[n+](C)c1 [1,3-dimethylimidazolium methylsulfate] + O
mass density [kg/m3]
Conditions | m1 = 0.0333 | m1 = 0.052 | m1 = 0.0743 | m1 = 0.0945 | m1 = 0.1147 | m1 = 0.1309 | m1 = 0.1517 | m1 = 0.1791
288.15 K | 1000.78 ± 2 | 1001.71 ± 2 | 1002.81 ± 2 | 1003.79 ± 2 | 1004.77 ± 2 | 1005.55 ± 2 | 1006.54 ± 2 | 1007.82 ± 2
298.15 K | 998.673 ± 2 | 999.578 ± 2 | 1000.65 ± 2 | 1001.61 ± 2 | 1002.57 ± 2 | 1003.33 ± 2 | 1004.3 ± 2 | 1005.56 ± 2
308.15 K | 995.619 ± 2 | 996.505 ± 2 | 997.553 ± 2 | 998.494 ± 2 | 999.435 ± 2 | 1000.18 ± 2 | 1001.14 ± 2 | 1002.38 ± 2
318.15 K | 991.771 ± 2 | 992.648 ± 2 | 993.684 ± 2 | 994.617 ± 2 | 995.542 ± 2 | 996.28 ± 2 | 997.222 ± 2 | 998.46 ± 2
